In patent publication US20220175667A1, “Extracellular Matrices, Uses Thereof, and Methods of Making Extracellular Matrices” (Johns Hopkins University, priority 2019, published 2022):

Assay: Reactivity of valsartan under EMR curing conditions
Assay type: physicochemical
Settings: mixed with dextramate, PEGDA, Irgacure; cured for 10 minutes
Protocol: Dextramate (24.2 mL of a 23.1 w/w % solution), PEGDA (16.3 mL of a 8.6 w/w % solution), Irgacure (14 mL of a 0.5 w/w % solution), and valsartan (2.82 mL or 1.41 mL of a 24.8 w/w % solution or 2.82 mL of a 1:10 dilution of a 24.8 w/w % solution) are mixed together. The mixture is cured for 10 minutes. After curing, 100 mL of dH2O is added to the cured product to create a swelled gel.

**Q.** With `CCCCC(=O)N(Cc1ccc(-c2ccccc2-c2nnn[nH]2)cc1)[C@H](C(=O)O)C(C)C` [valsartan] as the compound, how does the “reactivity under the curing conditions” value read?
**A.** does not exhibit reactivity
